Test results reported in patent US9585892B2, “Solid forms comprising N-(5-tert-butyl-isoxazol-3-yl)-N′-{4-[7-(2-morpholin-4-yl-ethoxy)imidazo[2,1-b][1,3]benzothiazol-2-yl]phenyl}urea, compositions thereof, and uses therewith” (AMBIT BIOSCIENCES CORPORATION, priority 2007, dated 2017).
Structures can show the parent of a compound that is named as a salt. Where two headings read alike, the source gives them in different places.

What was measured:
Type in all cases: physicochemical
[1] = Mechanical stress studies (compression, grinding, milling; XRPD after stress)
Procedure: Grinding. […] […] The solids were isolated and analyzed.
(§1) X-ray powder diffraction analyses were performed on an Inel XRG-3000 diffractometer, equipped with a curved position-sensitive detector with a […] of 120°. Real time data was collected using Cu Kα radiation starting at approximately 4 ° 2θ at a resolution of 0.03 ° 2θ. The tube voltage and amperage were set to 40 kV and 30 mA, respectively. […] Samples were prepared for analysis by packing them into thin-walled glass capillaries. Each capillary was mounted onto a goniometer head that is motorized to permit spinning of the capillary during data acquisition. Instrument calibration was performed daily using a silicon reference standard.

[2] = Dynamic vapor sorption/desorption (moisture balance); details: for post-moisture balance XRPD (resulting material): after sorption/desorption cycle 5-95-5% RH; for weight loss on desorption: from 95 to 5% RH
Procedure: Data were collected on a VTI SGA-100 moisture balance system. For sorption isotherms, a sorption range of about 5 to about 95% relative humidity (RH) and a desorption range of about 95 to about 5% RH in 10% RH increments were used for analysis. The samples were not dried prior to analysis. Equilibrium criteria used for analysis were less than 0.0100% weight change in 5 minutes with a maximum equilibration time of 3 hours if the weight criterion was not met. Data were not corrected for the initial moisture content of the samples.

[3] = Stress experiments (temperature or relative humidity, XRPD after stress); details: 75% RH, ambient temperature, 2 and 4 days
Procedure: Stress Experiments. Solids were stressed under different temperature or relative humidity (RH) environments for a measured time period. Specific RH values were achieved by placing the sample inside sealed chambers containing saturated salt solutions. The salt solutions were selected and prepared following an ASTM standard procedure. Samples were analyzed by XRPD immediately after removal from the stress environment.
as §1

[4] = Solubility measurements (solvent aliquot addition, visual inspection); details: for solubility: water, thermodynamic from solid, WATER, read-out: APPROXIMATE SOLUBILITY
Procedure: A weighed sample was treated with aliquots of the test solvent at room temperature or elevated temperature. Complete dissolution of the test material was determined by visual inspection. Solubility was estimated based on the total solvent used to provide complete dissolution. The actual solubility may be greater than the value calculated because of the use of solvent aliquots that were too large or due to a slow rate of dissolution. […] If complete dissolution was achieved as a result of only one aliquot addition, the solubility is expressed as “greater than.”

CC(C)(C)c1cc(NC(=O)Nc2ccc(-c3cn4c(n3)sc3cc(OCCN5CCOCC5)ccc34)cc2)no1 [Form B of the HCl salt of Compound B1, N-(5-tert-butyl-isoxazol-3-yl)-N′-{4-[7-(2-morpholin-4-yl-ethoxy)imidazo[2,1-b][1,3]benzothiazol-2-yl]phenyl}urea]
XRPD RESULT after mechanical stress ([1]; GRIND WITH MORTAR AND PESTLE, WATER, 1 MIN): B + SMALL PEAK | XRPD RESULT after mechanical stress ([1]; MILLING, 2,2,2-TRIFLUOROETHANOL, 10 MIN): B + LARGE PEAK | post-moisture balance XRPD (resulting material) [2]: Form B | post-moisture balance XRPD (resulting material) ([2]; listed as B): FORM B | weight loss upon initial equilibration ([2]; equilibrium at 5% RH): about 0.6% | water corresponding to the mass gain on sorption ([2]; from 5% to 95% RH): about 1.2 molar equivalents of water | weight gain on sorption ([2]; from 5 to 95% RH): about 3.6% | water corresponding to the weight gain on sorption ([2]; from 5 to 95% RH, listed as B): ~1.2 MOLES OF WATER FROM ~5 TO ~95% | weight gain on sorption ([2]; from 5 to 95% RH, listed as B): ~3.6% WEIGHT GAIN, CORRESPONDING TO | weight loss on desorption [2]: about 3.6% | weight loss on desorption ([2]; listed as B): RH, ~3.2% WEIGHT LOSS FROM ~95 TO ~5% | XRPD Result after stress [3]: Form B | weight change [3]: no substantial weight change | weight change ([3]; listed as B): 2 and 4 days: no weight | APPROXIMATE SOLUBILITY ([4]; 2,2,2-TRIFLUOROETHANOL, 67 ° C.): 53 mg/mL | APPROXIMATE SOLUBILITY ([4]; 2,2,2-TRIFLUOROETHANOL, AMBIENT): 52 mg/mL | APPROXIMATE SOLUBILITY ([4]; 2-BUTANONE (MEK), 62 ° C.): <1 mg/mL | APPROXIMATE SOLUBILITY ([4]; 2-BUTANONE (MEK), AMBIENT): <1 mg/mL | APPROXIMATE SOLUBILITY ([4]; ACETONE, 54 ° C.): <1 mg/mL | APPROXIMATE SOLUBILITY ([4]; ACETONE, AMBIENT): <1 mg/mL | APPROXIMATE SOLUBILITY ([4]; ACETONE:WATER 50:50, AMBIENT): 13 mg/mL | APPROXIMATE SOLUBILITY ([4]; ACETONITRILE, 60 ° C.): <1 mg/mL | APPROXIMATE SOLUBILITY ([4]; ACETONITRILE, AMBIENT): <1 mg/mL | APPROXIMATE SOLUBILITY ([4]; ACETONITRILE:WATER 50:50, AMBIENT): 51 mg/mL | APPROXIMATE SOLUBILITY ([4]; DICHLOROMETHANE, AMBIENT): <1 mg/mL | APPROXIMATE SOLUBILITY ([4]; DIOXANE:WATER 50:50, 62 ° C.): 23 mg/mL | APPROXIMATE SOLUBILITY ([4]; ETHANOL, 60 ° C.): <2 mg/mL | APPROXIMATE SOLUBILITY ([4]; ETHANOL, AMBIENT): <1 mg/mL | APPROXIMATE SOLUBILITY ([4]; ETHANOL:WATER 50:50, AMBIENT): 13 mg/mL | APPROXIMATE SOLUBILITY ([4]; ETHYL ACETATE, AMBIENT): <1 mg/mL | APPROXIMATE SOLUBILITY ([4]; ISOPROPANOL, 63 ° C.): <1 mg/mL | APPROXIMATE SOLUBILITY ([4]; ISOPROPANOL, AMBIENT): <1 mg/mL | APPROXIMATE SOLUBILITY ([4]; ISOPROPANOL:WATER 20:80, 62 ° C.): 54 mg/mL | APPROXIMATE SOLUBILITY ([4]; ISOPROPANOL:WATER 20:80, AMBIENT): 5 mg/mL | APPROXIMATE SOLUBILITY ([4]; METHANOL, 62 ° C.): 2 mg/mL | APPROXIMATE SOLUBILITY ([4]; METHANOL, AMBIENT): 1 mg/mL | APPROXIMATE SOLUBILITY ([4]; NITROMETHANE, 64 ° C.): <1 mg/mL | APPROXIMATE SOLUBILITY ([4]; NITROMETHANE, AMBIENT): <1 mg/mL | APPROXIMATE SOLUBILITY ([4]; P-DIOXANE, 63 ° C.): <1 mg/mL | APPROXIMATE SOLUBILITY ([4]; P-DIOXANE, AMBIENT): <1 mg/mL | APPROXIMATE SOLUBILITY ([4]; P-DIOXANE:WATER 50:50, AMBIENT): 6 mg/mL | APPROXIMATE SOLUBILITY ([4]; TETRAHYDROFURAN, 64 ° C.): <1 mg/mL | APPROXIMATE SOLUBILITY ([4]; TETRAHYDROFURAN, AMBIENT): <1 mg/mL | APPROXIMATE SOLUBILITY ([4]; TETRAHYDROFURAN:WATER 50:50, AMBIENT): 24 mg/mL | APPROXIMATE SOLUBILITY ([4]; TRIFLUOROTOLUENE, AMBIENT): <1 mg/mL | solubility ([4]; 68 °C, 68 ° C.): < 3000 µg/mL | solubility ([4]; AMBIENT): ≥ 1000 µg/mL
